Measurements as given in US10450288B2, “Hydroxy formamide derivatives and their use” (GLAXOSMITHKLINE INTELLECTUAL PROPERTY (NO.2) LIMITED, priority 2014, dated 2019).

Columns and labels:
[1] = test system: human cardiac fibroblasts; experiment: Cell-based inhibition assay of mature collagen deposition (immunostaining); settings: Cardiac fibroblast, read-out: pIC50, mature collagen cellular inhibition assay (converted)
Description: Cell-Based Inhibition Assay of Generation of Procollagen I C-Terminal Propeptide (PICP) and Mature Collagen:
An adaptation of the collagen deposition assay described by Chen, C. Z. C., et al., British Journal of Pharmacology, 2009, 158, 1196-1209 was used to examine effect of compounds on procollagen I processing and collagen deposition. In the adapted assay, human cardiac fibroblasts were utilized. Processing of procollagen I was determined by a PICP ELISA assay and deposition of mature collagen was determined by immunostaining.
Human cardiac fibroblasts were cultured and maintained until passage 6 in FGM-3 media (Lonza, #CC-3132) in a 37° C. humidified incubator with 5% CO2. They were then seeded in 96-well black wall, clear bottom plates at 10,000 to 15,000 cells per well in eagle's minimum essential media (EMEM, ATCC #30-2003) containing 10% fetal bovine serum (FBS, Life Technologies #10082147), 1% Glutamax (Life Technologies #35050061) and 1% Penicillin and Streptomycin (Life Technologies #15070063). These cultures were placed in 37° C. incubator. The next day, media were removed by aspiration and cells were rinsed with phosphate buffered saline. Crowding media (also called ficoll media) was prepared by adding 112.5 mg/ml of ficoll70 and 75 mg/ml ficoll400 (GE healthcare #17-0310-10 and 17-0300-10, respectively), 100 μM ascorbic acid, 1% Glutamax and 1% Penicillin and Streptomycin to EMEM media. Test compounds (dissolved in DMSO) were diluted into crowding media and then added to the cells. Final concentration of DMSO in crowding media was less than 0.3%. Cells were treated for 24 to 48 hr in a 37° C. incubator. At the end of the treatment period, cell media were collected. The level of PICP in the media were determined by a PICP ELISA assay (Quidel #8003) following the manufacturer's protocol. Potencies of test compounds were calculated by fitting PICP levels, relative to untreated controls, to log (inhibitor) vs. response equation using Graphpad Prism software 5.0 and expressed as pIC50.
For some compounds, deposition of mature collagen was measured by immunostaining in addition to PICP levels. At the end of the treatment period, cells on culture plate were fixed with 100% methanol (prechilled to −20° C.) for 10 min. Then the cells were immunostained with mouse anti-mature collagen I antibody (1:500 dilution, Sigma#C2456), anti-mouse secondary antibody Alexa647 (1:500 dilution, Invitrogen#A21236) and Hoechst (for nuclei, 2 μg/ml, Invitrogen#H3596). Fluorescent image acquisition was done using the Operetta High Content Imaging system (Perkin Elmer). For each image field, the intensity of mature collagen staining was normalized with the number of nuclei. Normalized collagen levels were used to calculate the potency of test compounds with Graphpad Prism software, as described above.

[2] = test system: human cardiac fibroblasts; experiment: Cell-based inhibition assay of generation of procollagen I C-terminal propeptide (PICP), PICP ELISA; settings: Cardiac fibroblast, read-out: pIC50, PICP cellular inhibition assay (converted)
Summary of the method: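 Cardiac fibroblasts (passage ≤6) treated 24–48 h at 37 °C with compounds in ficoll crowding medium containing 100 μM ascorbic acid, DMSO <0.3%. PICP secreted into the medium was quantified by ELISA, normalised to untreated controls and fitted to log(inhibitor)–response to give pIC50.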

[3] = human cardiac fibroblasts, crowding media, 24 to 48 hr, collagen I immunostaining normalized to nuclei
[4] = human cardiac fibroblasts, crowding media, 24 to 48 hr, PICP ELISA of media

CCCCC[C@@H](C(=O)NCNC(=O)c1ccc(-c2ccc(C(=O)N[C@@H](CC(=O)O)C(=O)O)c(OCC(=O)O)c2)o1)[C@@H](CC)N(O)C=O [Example 126, (S)-2-(2-(carboxymethoxy)-4-(5-((((R)-2-((R)-1-(N-hydroxyformamido)propyl)heptanamido)methyl)carbamoyl)furan-2-yl)benzamido) succinic acid]
IC50 [1, 3]: < 1000 nM | IC50 [2, 4]: < 3980 nM

CCCCC[C@@H](C(=O)NCNC(=O)c1ccc(-c2cc(OCC)cc(C(=O)O)c2O)o1)[C@@H](CC)N(O)C=O [Example 81, 5-ethoxy-2-hydroxy-3-(5-((((R)-2-((R)-1-(N-hydroxy-formamido)propyl)heptanamido)methyl)carbamoyl)furan-2-yl)benzoic acid]
IC50 [1, 3]: < 1000 nM | IC50 [2, 4]: < 3980 nM

CCCCC[C@@H](C(=O)NCNC(=O)c1ccc(-c2ccc(C(=O)N(CC(=O)O)CC(=O)O)c(OCC)c2)o1)[C@@H](CC)N(O)C=O [Example 86, 2,2′-((2-ethoxy-4-(5-((((R)-2-((R)-1-(N-hydroxy-formamido)propyl)heptanamido)methyl)carbamoyl)furan-2-yl)benzoyl)azanediyl) diacetic acid]
IC50 [1, 3]: < 1000 nM | IC50 [2, 4]: < 3980 nM

CCCCC[C@@H](C(=O)NCNC(=O)c1ccc(-c2cc(OCC(=O)O)cc(C(=O)O)c2)o1)[C@@H](CC)N(O)C=O [Example 113, 3-(carboxymethoxy)-5-(5-((((R)-2-((R)-1-(N-hydroxformamido)propyl)heptanamido)methyl)carbamoyl)furan-2-yl)benzoic acid]
IC50 [1, 3]: < 1000 nM | IC50 [2, 4]: < 3980 nM

CCCCC[C@@H](C(=O)NCNC(=O)c1ccc(-c2cc(O)c(C(=O)O)c(OCC)c2)o1)[C@@H](CC)N(O)C=O [Example 128, 2-ethoxy-6-hydroxy-4-(5-((((R)-2-((R)-1-(N-hydroxyformamido)propyl)heptanamido)methyl)carbamoyl)furan-2-yl)benzoic acid]
IC50 [1, 3]: < 1000 nM | IC50 [2, 4]: < 3980 nM

CCCCC[C@@H](C(=O)NCNC(=O)c1ccc(-c2cc(OCC)cc(C(=O)N[C@@H](CC(=O)O)C(=O)O)c2)o1)[C@@H](CC)N(O)C=O [Example 77, (S)-2-(3-ethoxy-5-(5-((((R)-2-((R)-1-(N-hydroxyformamido)propyl)heptanamido)methyl)carbamoyl)furan-2-yl)benzamido) succinic acid]
IC50 [1, 3]: < 1000 nM | IC50 [2, 4]: < 3980 nM

CCCCC[C@@H](C(=O)NCNC(=O)c1ccc(-c2cc(OCC(=O)O)cc(C(=O)O)c2O)o1)[C@@H](CC)N(O)C=O [Example 121, 5-(carboxymethoxy)-2-hydroxy-3-(5-((((R)-2-((R)-1-(N-hydroxyformamido)propyl)heptanamido)methyl)carbamoyl)furan-2-yl)benzoic acid]
IC50 [1, 3]: < 1000 nM | IC50 [2, 4]: < 3980 nM

CCOc1cc(-c2ccc(C(=O)NCNC(=O)[C@H](CCc3ccccc3)[C@@H](CC)N(O)C=O)o2)ccc1C(=O)N(CC(=O)O)CC(=O)O [Example 124, 2,2′-((2-ethoxy-4-(5-((((2R,3R)-3-(N-hydroxyformamido)-2-phenethylpentanamido)methyl)carbamoyl)furan-2-yl)benzoyl)azanediyl) diacetic acid]
IC50 [1, 3]: < 1000 nM | IC50 [2, 4]: < 3980 nM

CCCCC[C@@H](C(=O)NCNC(=O)c1ccc(-c2cc(CP(=O)(O)O)cc(OCC)c2)o1)[C@@H](CC)N(O)C=O [Example 99, (3-ethoxy-5-(5-((((R)-2-((R)-1-(N-hydroxy-formamido)propyl)heptanamido)methyl)carbamoyl)furan-2-yl)benzyl) phosphonic acid]
IC50 [1, 3]: < 1000 nM | IC50 [2, 4]: < 3980 nM

CCCCC[C@@H](C(=O)NCNC(=O)c1ccc(-c2cc(OCC)c(F)c(C(=O)O)c2)o1)[C@@H](CC)N(O)C=O [Example 111, 3-ethoxy-2-fluoro-5-(5-((((R)-2-((R)-1-(N-hydroxy-formamido)propyl)heptanamido)methyl)carbamoyl)furan-2-yl)benzoic acid]
IC50 [1, 3]: < 1000 nM | IC50 [2, 4]: < 3980 nM

CCCCC[C@@H](C(=O)NCNC(=O)c1ccc(-c2cc(O)cc(C(=O)O)c2)o1)[C@@H](CC)N(O)C=O [Example 112, 3-hydroxy-5-(5-((((R)-2((R)-1-(N-hydroxyformamido)propyl)heptanamido)methyl)carbamoyl)furan-2-yl)benzoic acid]
IC50 [1, 3]: < 1000 nM | IC50 [2, 4]: < 3980 nM

CCOc1cc(-c2ccc(C(=O)NCNC(=O)[C@H](CCc3ccccc3)[C@@H](CC)N(O)C=O)o2)ccc1C(=O)N[C@@H](CC(=O)O)C(=O)O [Example 127, (S)-2-(2-ethoxy-4-(5-((((2R,3R)-3-(N-hydroxyformamido)-2-phenethylpentanamido)methyl)carbamoyl)furan-2-yl)benzamido) succinic acid]
IC50 [1, 3]: < 1000 nM | IC50 [2, 4]: < 3980 nM

CCOc1cc(C(=O)N(CC(=O)O)CC(=O)O)cc(-c2ccc(C(=O)NCNC(=O)[C@H](CCc3ccc(F)cc3F)[C@@H](CC)N(O)C=O)o2)c1 [Example 122, 2,2′-((3-(5-((((2R,3R)-2-(2,4-difluorophenethyl)-3-(N-hydroxyformamido)pentanamido)methyl)carbamoyl)furan-2-yl)-5-ethoxybenzoyl)azanediyl)diacetic acid]
IC50 [1, 3]: < 1000 nM | IC50 [2, 4]: < 3980 nM

CCCCC[C@@H](C(=O)NCNC(=O)c1ccc(-c2cc(OCC)cc(C(=O)N[C@@H](CC(=O)O)C(=O)OC(C)(C)C)c2)o1)[C@@H](CC)N(O)C=O [Example 47, (S)-4-(tert-butoxy)-3-(3-ethoxy-5-(5-((((R)-2-((R)-1-(N-hydroxyformamido)propyl)heptanamido)methyl)carbamoyl)furan-2-yl)benzamido)-4-oxobutanoic acid]
IC50 [1, 3]: < 1000 nM | IC50 [2, 4]: < 3980 nM

CCCCC[C@@H](C(=O)NCNC(=O)c1ccc(-c2ccccc2)o1)[C@@H](CC)N(O)C=O [Example 24, N-(((R)-2-((R)-1-(N-hydroxyformamido)propyl)heptanamido)methyl)-5-phenylfuran-2-carboxamide]
IC50 [1, 3]: < 1000 nM | IC50 [2, 4]: < 3980 nM

CCCCC[C@@H](C(=O)NCNC(=O)c1ccc(-c2ccc(C(=O)N[C@H](CC(=O)O)C(=O)O)c(OCC)c2)o1)[C@@H](CC)N(O)C=O [Example 132, (R)-2-(2-ethoxy-4-(5-((((R)-2-((R)-1-(N-hydroxyformamido)propyl)heptanamido)methyl)carbamoyl)furan-2-yl)benzamido) succinic acid]
IC50 [1, 3]: < 1000 nM | IC50 [2, 4]: < 3980 nM

CCCCC[C@@H](C(=O)NCNC(=O)c1ccc(-c2cc(OCCC)cc(C(=O)O)c2)o1)[C@@H](CC)N(O)C=O [Example 82]
IC50 [1, 3]: < 1000 nM | IC50 [2, 4]: < 3980 nM

CCCCC[C@H](CN(O)C=O)C(=O)NCNC(=O)c1ccc(-c2ccccc2)o1 [Example 5, (R)-N-((2-((N-hydroxyformamido)methyl)heptanamido)methyl)-5-phenylfuran-2-carboxamide]
IC50 ([1]; Homo sapiens): < 1000 nM | IC50 ([2]; Homo sapiens): < 3980 nM
